# Patent US20260226417A1, “METHOD FOR INHIBITING AGING OF STEM CELLS” (ENCELL CO., LTD, priority 2023, published 2026)
# Key:
# [1] = test system: mesenchymal stem cell-positive markers CD44, CD73, CD90, CD105, CD166 and negative markers CD11b, CD14, CD19, CD34, CD45, HLA-DR; test: Stemness analysis by FACS in replicative senescence model (P18); assay type: cell-based, human; settings: 160 μM, 3 days
# Experimental: Example 6. Comparative analysis of stemness of gut microbiota-derived metabolite for senescence control A replicative senescence model (P18) was treated with nervonic acid (160 μM) to assess the effect thereof on stemness and adipogenesis.
# The replicative senescence model (P18) was treated with nervonic acid (160 μM), and the expression changes of the mesenchymal stem cell-positive markers CD44, CD73, CD90, CD105, and CD166, as well as the mesenchymal stem cell-negative markers CD11b, CD14, CD19, CD34, CD45, and HLA-DR were confirmed through FACS.
# Specifically, 3.6×10^6 cells treated with nervonic acid (160 μM) for 3 days were centrifuged, suspended in 1.2 ml of FACS buffer (PBS 98%+FBS 2%), and allowed to stand at room temperature for 30 minutes. Thereafter, 100 ul thereof was dispensed into each of 11 1.5 ml tubes (3×10^5 cells per tube), and a predetermined amount of antibody was added to each tube, followed by reaction at room temperature for 20 minutes in a light-blocking state. After washing by adding 200 μl of FACS buffer, centrifugation was performed at room temperature at 300 g for 5 minutes, the supernatant was removed, and the cells were suspended in 500 μl of FACS buffer and then transferred to a FACS tube for analysis.
# [2] = test system: human adipose-derived mesenchymal stem cells (AD-MSCs/passage 18); test: β-galactosidase staining, senescent AD-MSCs; assay type: cell-based; settings: AD-MSCs passage 18, 3 days
# Description: Human placenta-derived mesenchymal stem cells (pl-mscs) Were Isolated From Placentas Separated according to the previously reported method of Choi et al. (PLOS ONE, (2017) 12 (2): e0172642), umbilical cord blood-derived mesenchymal stem cells (UCB-MSCs) were isolated from the umbilical cord blood separated according to the method of Kim et al. (FEBS Letters, (2010) 584:3601-3608), and adipose tissue-derived mesenchymal stem cells (AD-MSCs) were isolated from adipose tissue separated according to the previously reported method of Palumbo et al. (Int. J. Mol. Sci. (2018) 19:1987).
# Each of the obtained mesenchymal stem cells was subcultured in aMEM (a-modified Minimum Essential Media) containing 10% fetal bovine serum (FBS) and 0.5% gentamicin (10 mg/ml).
# The replicative senescence models of human adipose-derived mesenchymal stem cells (AD-MSCs/passage 18), human bone marrow-derived mesenchymal stem cells (BM-MSCs/passage 15), human umbilical cord blood-derived mesenchymal stem cells (UCB-MSCs/passage 16), and human placenta-derived mesenchymal stem cells (PL-MSCs/passage 18) established as described above were treated with nervonic acid for 3 days, and β-galactosidase staining was performed to observe the extent of senescence.
# [3] = test system: MyHC (myosin heavy chain), a marker of muscle regeneration, in muscle tissue; test: MyHC Western blotting in muscle tissue of muscle disease mouse model after injection of treated P18 cells; assay type: in vivo; settings: P18 cells treated with 160 μM for 72 hours, injected via tail vein, mdx mouse, one week after injection
# Experimental: (§1) Specifically, the muscle disease mouse model used was C57BL/10ScSn-Dmdmdx/J (mdx mouse) , and C57BL/10J with the same genetic background was used as a control group. All experiments were conducted using mice aged 4 to 5 months. The cells to be injected were human umbilical cord-derived young mesenchymal stem cells (control group) (P5) and replicative senescence model (P18). More specifically, the replicative senescence model (P18) was treated with 160 μM nervonic acid or an equivalent amount of DMSO for 72 hours during culture at P18 and then dissociated as single cells with 0.25% Trypsin/EDTA (Gibco, MT, USA), and 5×10^4 cells per mouse were injected via the tail vein. One week after injection, both tibial muscles of the mouse model were harvested and fixed in 4% paraformaldehyde or frozen.
# Example 10. Comparative analysis of muscle regeneration promotion efficacy after injection of various human tissue-derived mesenchymal stem cells treated with nervonic acid into muscle disease mouse model A replicative senescence model (P18) was treated with nervonic acid (160 μM) and then injected into a muscle disease mouse model to assess the effect of nervonic acid treatment on the therapeutic efficacy of the replicative senescence model (P18) in terms of muscle regeneration in muscle tissue.
# In addition, the expression of MyHC was assessed at the protein level. […]
# [4] = test system: Annexin V, an apoptosis marker, in muscle tissue; test: Annexin V immunohistochemical staining in muscle tissue of muscle disease mouse model after injection of treated P18 cells; assay type: in vivo; settings: P18 cells treated with 160 μM for 72 hours, 5×10^4 cells per mouse via tail vein, one week after injection
# Experimental: (§2) A replicative senescence model (P18) was treated with nervonic acid (160 μM) and then injected into a muscle disease mouse model to assess the effect of nervonic acid treatment on the therapeutic efficacy of the replicative senescence model (P18) in terms of reducing apoptosis in muscle tissue.
# Specifically, the muscle disease mouse model used was C57BL/10ScSn-Dmdmdx/J (mdx mouse) , and C57BL/10J with the same genetic background was used as a control group. All experiments were conducted using mice aged 4 to 5 months. The cells to be injected were human umbilical cord-derived young mesenchymal stem cells (control group) (P5) and replicative senescence model (P18). […]
# In order to assess the extent of apoptosis in the muscle tissue of a muscle disease mouse model after injecting mesenchymal stem cells for each condition, the extent of apoptosis in the tissue was determined through immunohistochemical staining for Annexin V, an apoptosis marker. […] Then, the secondary antibody (fluorescence-labeled polymer anti-rabbit) was added and incubated for […] followed by mounting, DAPI staining, washing, and then observation and photography under a fluorescence microscope.
# [5] = test system: Annexin V, an apoptosis marker, in muscle tissue; test: Annexin V Western blotting in muscle tissue of muscle disease mouse model after injection of treated P18 cells; assay type: in vivo; settings: P18 cells treated with 160 μM for 72 hours, 5×10^4 cells per mouse via tail vein, one week after injection
# Experimental: as §2, §1
# In addition, the expression of Annexin V was assessed at the protein level. Specifically, the protein to be used in the experiment was extracted from muscle tissue. […]
compound,measurement,setting,value
CCCCCCCC/C=C\CCCCCCCCCCCCCC(=O)O [nervonic acid],"expression of CD11b, a mesenchymal stem cell-negative marker",[1],decreased
same,"expression of mesenchymal stem cell-positive markers CD44, CD73, CD90, CD105, and CD166",[1],restored
same,progression of senescence (β-galactosidase staining) compared to control group (DMSO),[2],progression of senescence was significantly inhibited
same,MyHC protein expression level (Western blotting) compared to DMSO treatment group,[3],significantly increased
same,Annexin V expression level (immunohistochemical staining) compared to mdx control group,[4],significantly reduced
same,"Annexin V protein expression (Western blotting), fold decrease compared to mdx control group",[5],0.30±0.02 fold
